Data taken from patent publication US20150284331A1 (priority 2012, published 2015).

Columns and labels:
[1] = target: T1, acetylcholinesterase (Rattus norvegicus, UniProt P37136); test: biochemical; assay type: biochemical; settings: rat cortex enzyme; for acetylcholinesterase inhibitory activity inhibition ratio (%): final concentration 4×10−5 mol/L; for IC50: read-out: acetylcholinesterase inhibitory activity IC50 (nmol)
T1 construct: Acetylcholinesterase: rat cortex; from tissue; host or cells: rat cortex
T1 sequence (P37136 32-614): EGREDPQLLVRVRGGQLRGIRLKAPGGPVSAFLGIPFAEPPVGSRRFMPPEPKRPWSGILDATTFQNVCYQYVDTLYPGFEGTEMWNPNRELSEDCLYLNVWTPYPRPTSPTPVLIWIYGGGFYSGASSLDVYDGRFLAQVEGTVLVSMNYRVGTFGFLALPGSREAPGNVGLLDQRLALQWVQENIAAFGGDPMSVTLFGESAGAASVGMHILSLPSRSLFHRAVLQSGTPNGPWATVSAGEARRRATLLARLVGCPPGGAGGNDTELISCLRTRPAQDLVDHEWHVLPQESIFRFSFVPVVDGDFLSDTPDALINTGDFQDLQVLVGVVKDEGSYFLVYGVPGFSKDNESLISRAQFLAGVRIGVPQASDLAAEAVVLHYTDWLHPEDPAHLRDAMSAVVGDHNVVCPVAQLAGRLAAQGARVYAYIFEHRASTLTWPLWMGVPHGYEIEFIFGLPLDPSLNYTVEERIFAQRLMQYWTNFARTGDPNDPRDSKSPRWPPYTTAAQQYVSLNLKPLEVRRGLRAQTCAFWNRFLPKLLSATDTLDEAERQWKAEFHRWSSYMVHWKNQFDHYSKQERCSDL
Method: (§1) Sample processing: All samples were formulated as 10-2 mol/L solution by using 100% DMSO. 10-2 mol/L solution was used in microdetermination. 1 μL was taken to use in single tube experiment.
(§2) Solvent control: 0.4% DMSO was used in microdetermination. The inhibition ratio of the sample was obtained wherein the effect of solvent was deducted.
Acetylcholinesterase: rat cortex

[2] = target: T2, butyrylcholinesterase (Rattus norvegicus, UniProt Q9JKC1); test: inhibition of butyrylcholinesterase (rat serum); assay type: biochemical; settings: rat serum enzyme; final concentration 4×10−5 mol/L
T2 construct: Butyrylcholinesterase: rat serum; from tissue; host or cells: rat serum
T2 sequence (Q9JKC1 24-597): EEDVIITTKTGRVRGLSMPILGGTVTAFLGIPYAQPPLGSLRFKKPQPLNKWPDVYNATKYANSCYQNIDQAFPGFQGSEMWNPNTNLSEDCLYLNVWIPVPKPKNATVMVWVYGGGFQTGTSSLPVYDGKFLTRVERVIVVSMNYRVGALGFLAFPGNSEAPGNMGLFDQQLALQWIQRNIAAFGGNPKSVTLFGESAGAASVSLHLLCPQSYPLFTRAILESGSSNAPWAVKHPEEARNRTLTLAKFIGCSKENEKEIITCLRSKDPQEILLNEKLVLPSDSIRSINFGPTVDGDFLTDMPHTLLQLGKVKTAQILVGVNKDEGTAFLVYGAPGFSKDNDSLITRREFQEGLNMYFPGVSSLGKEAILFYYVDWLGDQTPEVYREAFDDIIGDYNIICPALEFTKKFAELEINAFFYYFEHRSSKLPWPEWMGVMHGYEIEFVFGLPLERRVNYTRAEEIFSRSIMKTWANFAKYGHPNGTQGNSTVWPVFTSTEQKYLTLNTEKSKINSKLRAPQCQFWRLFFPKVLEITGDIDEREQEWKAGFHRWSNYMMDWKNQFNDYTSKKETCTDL
Method: as §1, §2
Butyrylcholinesterase: rat serum

SMILES: COc1cc2c(cc1OC)C(=O)C(CC1(F)CCN(Cc3ccc([N+](=O)[O-])cc3)CC1)C2 (stereo not drawn) [DC1, 2-((4-fluoro-1-(4-nitrobenzyl)piperidin-4-yl)methyl)-5,6-dimethoxy-2,3-dihydro-1H-inden-1-one]
- acetylcholinesterase inhibitory activity inhibition ratio (%) [1]: 72.85%
- IC50 [1]: 8780 nM
- butyrylcholinesterase inhibitory activity inhibition ratio (%) [2]: 46.68%

SMILES: COc1cc2c(cc1OC)C(=O)C(CC1(F)CCN(Cc3ccccc3C#N)CC1)C2 (stereo not drawn) [DC3, 2-((4-((5,6-dimethoxy-1-oxo-2,3-dihydro-1H-inden-2-yl)methyl)-4-fluoropiperidin-1-yl)methyl)benzonitrile]
- acetylcholinesterase inhibitory activity inhibition ratio (%) [1]: 80.04%
- butyrylcholinesterase inhibitory activity inhibition ratio (%) [2]: 36.42%

SMILES: COc1cc2c(cc1OC)C(=O)C(CC1(F)CCN(Cc3cc(C)cc(C)c3)CC1)C2 (stereo not drawn) [DC4, 2-((1-(3,5-dimethylbenzyl)-4-fluoropiperidin-4-yl)methyl)-5,6-dimethoxy-2,3-dihydro-1H-inden-1-one]
- acetylcholinesterase inhibitory activity inhibition ratio (%) [1]: 75.65%
- butyrylcholinesterase inhibitory activity inhibition ratio (%) [2]: 72.82%

SMILES: COc1cc2c(cc1OC)C(=O)C(CC1(F)CCN(Cc3ccc(F)cc3)CC1)C2 (stereo not drawn) [DC5, 2-((4-fluoro-1-(4-fluorobenzyl)piperidin-4-yl)methyl)-5,6-dimethoxy-2,3-dihydro-1H-inden-1-one]
- acetylcholinesterase inhibitory activity inhibition ratio (%) [1]: 82.04%
- IC50 [1]: 2.67 nM
- butyrylcholinesterase inhibitory activity inhibition ratio (%) [2]: 0.00%

SMILES: COc1cc2c(cc1OC)C(=O)C(CC1(F)CCN(Cc3ccc(OC(F)(F)F)cc3)CC1)C2 (stereo not drawn) [DC6, 2-((4-fluoro-1-(4-(trifluoromethoxy)benzyl)piperidin-4-yl)methyl)-5,6-dimethoxy-2,3-dihydro-1H-inden-1-one]
- acetylcholinesterase inhibitory activity inhibition ratio (%) [1]: 51.7%
- butyrylcholinesterase inhibitory activity inhibition ratio (%) [2]: 1.24%

SMILES: COc1cc2c(cc1OC)C(=O)C(CC1(F)CCN(Cc3ccc(C(C)(C)C)cc3)CC1)C2 (stereo not drawn) [DC7, 2-((1-(4-(tert-butyl)benzyl)-4-fluoropiperidin-4-yl)methyl)-5,6-dimethoxy-2,3-dihydro-1H-inden-1-one]
- acetylcholinesterase inhibitory activity inhibition ratio (%) [1]: 69.06%
- butyrylcholinesterase inhibitory activity inhibition ratio (%) [2]: 8.40%

SMILES: COc1cc2c(cc1OC)C(=O)C(CC1(F)CCN(Cc3c(F)cccc3[N+](=O)[O-])CC1)C2 (stereo not drawn) [DC8, 2-((4-fluoro-1-(2-fluoro-6-nitrobenzyl)piperidin-4-yl)methyl)-5,6-dimethoxy-2,3-dihydro-1H-inden-1-one]
- acetylcholinesterase inhibitory activity inhibition ratio (%) [1]: 76.05%
- IC50 [1]: 27100 nM
- butyrylcholinesterase inhibitory activity inhibition ratio (%) [2]: 49.48%

SMILES: COc1cc2c(cc1OC)C(=O)C(CC1(F)CCN(Cc3cc4c(cc3Br)OCO4)CC1)C2 (stereo not drawn) [DC9, 2-((1-((6-bromobenzo[d][1,3]dioxol-5-yl)methyl)-4-fluoropiperidin-4-yl)methyl)-5,6-dimethoxy-2,3-dihydro-1H-inden-1-one]
- acetylcholinesterase inhibitory activity inhibition ratio (%) [1]: 97.34%
- butyrylcholinesterase inhibitory activity inhibition ratio (%) [2]: 33.79%

SMILES: COc1cc2c(cc1OC)C(=O)C(CC1(F)CCN(Cc3ccc(F)cc3F)CC1)C2 (stereo not drawn) [DC10, 2-((1-(2,4-difluorobenzyl)-4-fluoropiperidin-4-yl)methyl)-5,6-dimethoxy-2,3-dihydro-1H-inden-1-one]
- acetylcholinesterase inhibitory activity inhibition ratio (%) [1]: 97.34%
- butyrylcholinesterase inhibitory activity inhibition ratio (%) [2]: 83.11%

SMILES: COc1cc2c(cc1OC)C(=O)C(CC1(F)CCN(Cc3cccc(Br)c3)CC1)C2 (stereo not drawn) [DC11, 2-((1-(3-bromobenzyl)-4-fluoropiperidin-4-yl)methyl)-5,6-dimethoxy-2,3-dihydro-1H-inden-1-one]
- acetylcholinesterase inhibitory activity inhibition ratio (%) [1]: 84.63%
- IC50 [1]: 4.33 nM
- butyrylcholinesterase inhibitory activity inhibition ratio (%) [2]: 12.76%

SMILES: COc1cc2c(cc1OC)C(=O)C(CC1(F)CCN(Cc3ccc(F)c(F)c3F)CC1)C2 (stereo not drawn) [DC12, 2-((4-fluoro-1-(2,3,4-trifluorobenzyl)piperidin-4-yl)methyl)-5,6-dimethoxy-2,3-dihydro-1H-inden-1-one]
- acetylcholinesterase inhibitory activity inhibition ratio (%) [1]: 98.08%
- butyrylcholinesterase inhibitory activity inhibition ratio (%) [2]: 38.15%

SMILES: COc1cc2c(cc1OC)C(=O)C(CC1(F)CCN(Cc3cccc(C#N)c3)CC1)C2 (stereo not drawn) [DC13, 3-((4-((5,6-dimethoxy-1-oxo-2,3-dihydro-1H-inden-2-yl)methyl)-4-fluoropiperidin-1-yl)methyl)benzonitrile]
- acetylcholinesterase inhibitory activity inhibition ratio (%) [1]: 97.19%
- butyrylcholinesterase inhibitory activity inhibition ratio (%) [2]: 29.25%

SMILES: COc1cc2c(cc1OC)C(=O)C(CC1(F)CCN(Cc3ccccc3Br)CC1)C2 (stereo not drawn) [DC14, 2-((1-(2-bromobenzyl)-4-fluoropiperidin-4-yl)methyl)-5,6-dimethoxy-2,3-dihydro-1H-inden-1-one]
- acetylcholinesterase inhibitory activity inhibition ratio (%) [1]: 85.03%
- IC50 [1]: 4 nM
- butyrylcholinesterase inhibitory activity inhibition ratio (%) [2]: 54.77%

SMILES: COc1cc2c(cc1OC)C(=O)C(CC1(F)CCN(Cc3ccc(Br)cc3F)CC1)C2 (stereo not drawn) [DC15, 2-((1-(4-bromo-2-fluorobenzyl)-4-fluoropiperidin-4-yl)methyl)-5,6-dimethoxy-2,3-dihydro-1H-inden-1-one]
- acetylcholinesterase inhibitory activity inhibition ratio (%) [1]: 72.65%
- IC50 [1]: 7040 nM
- butyrylcholinesterase inhibitory activity inhibition ratio (%) [2]: 0.31%

SMILES: COc1cc2c(cc1OC)C(=O)C(CC1(F)CCN(Cc3ccc(C(F)(F)F)cc3)CC1)C2 (stereo not drawn) [DC16, 2-((4-fluoro-1-(4-(trifluoromethyl)benzyl)piperidin-4-yl)methyl)-5,6-dimethoxy-2,3-dihydro-1H-inden-1-one]
- acetylcholinesterase inhibitory activity inhibition ratio (%) [1]: 75.25%
- butyrylcholinesterase inhibitory activity inhibition ratio (%) [2]: 0.00%

SMILES: COc1cc2c(cc1OC)C(=O)C(CC1(F)CCN(Cc3cc(F)c(F)cc3F)CC1)C2 (stereo not drawn) [DC17, 2-((4-fluoro-1-(2,4,5-trifluorobenzyl)piperidin-4-yl)methyl)-5,6-dimethoxy-2,3-dihydro-1H-inden-1-one]
- acetylcholinesterase inhibitory activity inhibition ratio (%) [1]: 81.84%
- IC50 [1]: 2 nM
- butyrylcholinesterase inhibitory activity inhibition ratio (%) [2]: 49.79%

SMILES: COc1cc2c(cc1OC)C(=O)C(CC1(F)CCN(Cc3ccccc3C(F)(F)F)CC1)C2 (stereo not drawn) [DC18, 2-((4-fluoro-1-(2-(trifluoromethyl)benzyl)piperidin-4-yl)methyl)-5,6-dimethoxy-2,3-dihydro-1H-inden-1-one]
- acetylcholinesterase inhibitory activity inhibition ratio (%) [1]: 93.80%
- butyrylcholinesterase inhibitory activity inhibition ratio (%) [2]: 14.99%

SMILES: COc1cc2c(cc1OC)C(=O)C(CC1(F)CCN(Cc3cccc(F)c3)CC1)C2 (stereo not drawn) [DC21, 2-((4-fluoro-1-(3-fluorobenzyl)piperidin-4-yl)methyl)-5,6-dimethoxy-2,3-dihydro-1H-inden-1-one]
- acetylcholinesterase inhibitory activity inhibition ratio (%) [1]: 82.24%
- butyrylcholinesterase inhibitory activity inhibition ratio (%) [2]: 75.02%

SMILES: COc1cc2c(cc1OC)C(=O)C(CC1(F)CCN(Cc3cc(C(F)(F)F)cc(C(F)(F)F)c3)CC1)C2 (stereo not drawn) [DC22, 2-((1-(3,5-bis(trifluoromethyl)benzyl)-4-fluoropiperidin-4-yl)methyl)-5,6-dimethoxy-2,3-dihydro-1H-inden-1-one]
- acetylcholinesterase inhibitory activity inhibition ratio (%) [1]: 58.49%
- butyrylcholinesterase inhibitory activity inhibition ratio (%) [2]: 4.36%

SMILES: COc1cc2c(cc1OC)C(=O)C(CC1(F)CCN(Cc3c(F)c(F)c(F)c(F)c3F)CC1)C2 (stereo not drawn) [DC28, 2-((4-fluoro-1-((perfluorophenyl)methyl)piperidin-4-yl)methyl)-5,6-dimethoxy-2,3-dihydro-1H-inden-1-one]
- acetylcholinesterase inhibitory activity inhibition ratio (%) [1]: 96.5%

SMILES: COc1cc2c(cc1OC)C(=O)C(CC1(F)CC3CCC(C1)N3Cc1ccc([N+](=O)[O-])cc1)C2 (stereo not drawn) [DC41, 2-((3-fluoro-8-(4-nitrobenzyl)-8-azabicyclo[3.2.1]octan-3-yl)methyl)-5,6-dimethoxy-2,3-dihydro-1H-inden-1-one]
- acetylcholinesterase inhibitory activity inhibition ratio (%) [1]: 56.8%

SMILES: COc1cc2c(cc1OC)C(=O)C(CC1(F)CC3CCC(C1)N3Cc1ccccc1C#N)C2 (stereo not drawn) [DC43, 2-((3-((5,6-dimethoxy-1-oxo-2,3-dihydro-1H-inden-2-yl)methyl)-3-fluoro-8-azabicyclo[3.2.1]octan-8-yl)methyl)benzonitrile]
- acetylcholinesterase inhibitory activity inhibition ratio (%) [1]: 88.9%

SMILES: COc1cc2c(cc1OC)C(=O)C(CC1(F)CC3CCC(C1)N3Cc1c(F)cccc1[N+](=O)[O-])C2 (stereo not drawn) [DC48, 2-((3-fluoro-8-(2-fluoro-6-nitrobenzyl)-8-azabicyclo[3.2.1]octan-3-yl)methyl)-5,6-dimethoxy-2,3-dihydro-1H-inden-1-one]
- acetylcholinesterase inhibitory activity inhibition ratio (%) [1]: 77.3%

SMILES: COc1cc2c(cc1OC)C(=O)C(CC1(F)CC3CCC(C1)N3Cc1ccccc1Br)C2 (stereo not drawn) [DC54, 2-((8-(2-bromobenzyl)-3-fluoro-8-azabicyclo[3.2.1]octan-3-yl)methyl)-5,6-dimethoxy-2,3-dihydro-1H-inden-1-one]
- acetylcholinesterase inhibitory activity inhibition ratio (%) [1]: 90.3%

SMILES: COc1cc2c(cc1OC)C(=O)C(CC1(F)CC3CCC(C1)N3Cc1ccc(-c3ccccc3)cc1)C2 (stereo not drawn) [DC76, 2-((8-([1,1′-biphenyl]-4-ylmethyl)-3-fluoro-8-azabicyclo[3.2.1]octan-3-yl)methyl)-5,6-dimethoxy-2,3-dihydro-1H-inden-1-one]
- acetylcholinesterase inhibitory activity inhibition ratio (%) [1]: 85.3%
